Laboratory results: patent publication US20200170975A1 (Strongbridge Dublin Limited, priority 2018, published 2020)
Read-outs that look alike come from different tables or passages of the source.

Columns and labels:
BCRP = molecular target: T1, BCRP (Homo sapiens, UniProt Q9UNQ0); experiment: BCRP inhibition: bidirectional transport of prazosin across MDCKII-BCRP and control MDCKII cells; conditions: for Recovery (%) A:B / Recovery (%) B:A / % control: 120 min
T1 sequence (Q9UNQ0 1-655): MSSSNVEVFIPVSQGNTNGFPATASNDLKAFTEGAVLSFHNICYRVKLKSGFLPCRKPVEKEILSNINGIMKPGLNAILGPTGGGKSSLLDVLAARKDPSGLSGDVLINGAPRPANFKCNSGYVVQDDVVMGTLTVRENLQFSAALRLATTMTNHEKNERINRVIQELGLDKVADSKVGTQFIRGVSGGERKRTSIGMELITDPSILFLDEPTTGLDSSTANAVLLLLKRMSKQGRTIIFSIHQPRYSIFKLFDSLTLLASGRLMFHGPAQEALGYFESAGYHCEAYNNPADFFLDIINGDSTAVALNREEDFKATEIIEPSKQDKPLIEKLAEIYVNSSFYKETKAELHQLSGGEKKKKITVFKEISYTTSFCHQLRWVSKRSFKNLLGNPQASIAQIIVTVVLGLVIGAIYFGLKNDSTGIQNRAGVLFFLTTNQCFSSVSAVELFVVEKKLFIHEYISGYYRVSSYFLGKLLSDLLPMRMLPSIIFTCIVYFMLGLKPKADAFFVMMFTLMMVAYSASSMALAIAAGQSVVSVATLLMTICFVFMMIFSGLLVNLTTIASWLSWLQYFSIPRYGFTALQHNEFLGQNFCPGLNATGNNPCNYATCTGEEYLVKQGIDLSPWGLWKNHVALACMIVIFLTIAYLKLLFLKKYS
Source text: MDCKII P-gp, MDCKII BCRP and control MDCKII cells were purchased from the Netherlands Cancer Institute.

OAT2 = molecular target: T2, OAT2 (Homo sapiens, UniProt Q9Y694); experiment: OAT2 inhibition: accumulation of [3H]-PGE2 in S2 cells; assay type: in vitro ADME
T2 construct: expressed in transfected cells; host or cells: S2 cells
T2 sequence (Q9Y694 1-548): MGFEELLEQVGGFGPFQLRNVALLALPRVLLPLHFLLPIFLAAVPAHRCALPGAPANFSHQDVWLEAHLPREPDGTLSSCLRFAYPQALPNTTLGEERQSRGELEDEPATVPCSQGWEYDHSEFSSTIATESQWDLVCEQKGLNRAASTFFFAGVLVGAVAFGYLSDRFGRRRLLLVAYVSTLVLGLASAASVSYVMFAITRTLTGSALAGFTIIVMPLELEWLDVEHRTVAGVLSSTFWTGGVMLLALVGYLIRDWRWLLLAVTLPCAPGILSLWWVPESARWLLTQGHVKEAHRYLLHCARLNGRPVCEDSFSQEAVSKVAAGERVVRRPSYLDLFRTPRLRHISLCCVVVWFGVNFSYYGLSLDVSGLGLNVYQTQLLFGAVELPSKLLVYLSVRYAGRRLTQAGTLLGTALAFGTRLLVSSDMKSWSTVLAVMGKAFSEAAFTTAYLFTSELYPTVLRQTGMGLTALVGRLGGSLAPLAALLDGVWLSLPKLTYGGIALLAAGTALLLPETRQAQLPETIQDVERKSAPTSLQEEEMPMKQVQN
Protocol: Schneider 2 (S2) cells are a commonly used Drosophila melanogaster cell lines from a primary culture of late stage (20-24 hours old) embryos from a macrophage-like lineage. S2 cells are used to express heterologous proteins, to produce proteins on a large scale, and to easily and transiently transfect with several plasmids at once to study protein interactions.
[^14C]-Metformin (1 mM) was provided as a solid and was prepared in Hank's balanced salt solution (HBSS).

P-gp [1] = molecular target: T3, P-gp (Homo sapiens, UniProt P08183)
T3 sequence (P08183 whole entry): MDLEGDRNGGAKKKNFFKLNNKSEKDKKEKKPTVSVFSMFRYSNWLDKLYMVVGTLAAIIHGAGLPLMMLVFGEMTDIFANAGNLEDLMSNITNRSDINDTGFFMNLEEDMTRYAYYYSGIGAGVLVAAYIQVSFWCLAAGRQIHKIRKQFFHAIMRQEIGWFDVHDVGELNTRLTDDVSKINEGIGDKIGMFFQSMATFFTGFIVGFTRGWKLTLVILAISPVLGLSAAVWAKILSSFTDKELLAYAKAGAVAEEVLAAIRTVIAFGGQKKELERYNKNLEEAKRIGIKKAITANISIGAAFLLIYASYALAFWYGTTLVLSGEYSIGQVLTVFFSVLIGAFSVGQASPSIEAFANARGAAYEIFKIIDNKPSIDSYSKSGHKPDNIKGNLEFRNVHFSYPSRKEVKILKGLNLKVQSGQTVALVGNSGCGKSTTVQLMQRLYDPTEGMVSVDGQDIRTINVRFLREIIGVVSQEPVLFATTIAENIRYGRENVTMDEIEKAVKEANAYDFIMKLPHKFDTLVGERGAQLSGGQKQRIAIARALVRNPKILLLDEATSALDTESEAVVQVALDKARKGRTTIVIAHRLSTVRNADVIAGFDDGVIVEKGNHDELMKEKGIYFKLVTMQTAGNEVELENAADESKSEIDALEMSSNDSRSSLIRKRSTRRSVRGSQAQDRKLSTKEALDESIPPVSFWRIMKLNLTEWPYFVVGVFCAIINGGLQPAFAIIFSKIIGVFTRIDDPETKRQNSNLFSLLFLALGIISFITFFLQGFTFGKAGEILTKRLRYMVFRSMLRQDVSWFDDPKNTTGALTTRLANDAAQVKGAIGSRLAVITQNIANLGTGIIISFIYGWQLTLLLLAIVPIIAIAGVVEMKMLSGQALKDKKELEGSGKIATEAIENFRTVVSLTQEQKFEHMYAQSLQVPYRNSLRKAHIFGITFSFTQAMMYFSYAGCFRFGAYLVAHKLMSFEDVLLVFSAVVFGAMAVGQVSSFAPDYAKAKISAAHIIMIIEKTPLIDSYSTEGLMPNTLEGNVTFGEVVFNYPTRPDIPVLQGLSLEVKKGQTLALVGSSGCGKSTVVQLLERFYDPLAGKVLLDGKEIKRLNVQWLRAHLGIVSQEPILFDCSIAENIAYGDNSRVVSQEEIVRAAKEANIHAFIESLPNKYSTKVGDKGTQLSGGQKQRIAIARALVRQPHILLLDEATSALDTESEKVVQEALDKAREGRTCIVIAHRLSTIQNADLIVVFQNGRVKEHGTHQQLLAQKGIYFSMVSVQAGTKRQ

OCT1 [2] = molecular target: T4, OCT1 (Homo sapiens, UniProt O15245)
T4 sequence (O15245 1-554): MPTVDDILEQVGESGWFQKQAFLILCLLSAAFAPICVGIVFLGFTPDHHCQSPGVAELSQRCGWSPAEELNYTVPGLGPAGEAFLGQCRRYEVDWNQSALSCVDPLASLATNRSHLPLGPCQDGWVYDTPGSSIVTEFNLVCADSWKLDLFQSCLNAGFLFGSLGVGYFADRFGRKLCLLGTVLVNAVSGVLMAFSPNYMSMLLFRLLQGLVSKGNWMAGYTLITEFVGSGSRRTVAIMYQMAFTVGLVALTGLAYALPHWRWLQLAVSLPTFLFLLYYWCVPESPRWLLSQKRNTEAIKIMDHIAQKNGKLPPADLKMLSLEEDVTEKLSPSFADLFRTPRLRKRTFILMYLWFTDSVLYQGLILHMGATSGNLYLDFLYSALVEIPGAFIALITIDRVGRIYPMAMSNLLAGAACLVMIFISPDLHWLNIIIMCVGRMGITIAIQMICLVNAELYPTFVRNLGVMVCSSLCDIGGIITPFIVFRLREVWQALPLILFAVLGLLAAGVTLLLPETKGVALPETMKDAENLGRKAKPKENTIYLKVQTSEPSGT

OCT1 [3] = molecular target: T4, OCT1; conditions: for Uptake, OCT1 (Average ± SD): OCT1 HEK293 cells; for Uptake, OCT1 (Average ± SD) / % control / Background corrected uptake rate / Uptake, Control (Average ± SD): [14C]-TEA bromide 5 μM; for Uptake, Control (Average ± SD): control HEK293 cells
P-gp [4] = molecular target: T3, P-gp; conditions: 120 min

With `NS(=O)(=O)c1cc(Cl)c(Cl)c(S(N)(=O)=O)c1` [Dichlorphenamide, 4,5-dichloro-1,3-benzenedisulfonamide] the IC50 (BCRP) was over 1 mM, the “Recovery (%) A:B” value (BCRP; dog, MDCK, 1000 μM) was 84.7% and the “Recovery (%) B:A” value (BCRP; dog, MDCK, 1000 μM) was 77.0%. The “% control” value (BCRP; human, 3 μM) was 124%, the “% control” value (BCRP; human, 10 μM) was 91.4% and the “% control” value (BCRP; human, 30 μM) was 83.3%. The “% control” value (BCRP; human, 100 μM) was 91.2%, the “% control” value (BCRP; human, 300 μM) was 91.9% and the “% control” value (BCRP; human, 1000 μM) was 60.0%. For the same compound, the “Recovery (%) A:B” value (BCRP; human, 1000 μM) was 93.0%, the “Recovery (%) B:A” value (BCRP; human, 1000 μM) was 83.7% and the IC50 (OAT2) was over 1 mM. For the same compound, the IC50 (P-gp [1]) was over 1 mM, the IC50 (OCT1 [2]) was over 1 mM and the “Uptake, OCT1 (Average ± SD)” value (OCT1 [3]; inhibitor 1 μm) was 121 ± 11 pmol/mg protein. The “Uptake, OCT1 (Average ± SD)” value (OCT1 [3]; inhibitor 3 μm) was 125 ± 5 pmol/mg protein, the “Uptake, OCT1 (Average ± SD)” value (OCT1 [3]; inhibitor 10 μm) was 111 ± 4 pmol/mg protein and the “Uptake, OCT1 (Average ± SD)” value (OCT1 [3]; inhibitor 30 μm) was 122 ± 14 pmol/mg protein. The “Uptake, OCT1 (Average ± SD)” value (OCT1 [3]; inhibitor 100 μm) was 128 ± 6 pmol/mg protein, the “Uptake, OCT1 (Average ± SD)” value (OCT1 [3]; inhibitor 300 μm) was 130 ± 10 pmol/mg protein and the “Uptake, OCT1 (Average ± SD)” value (OCT1 [3]; inhibitor 1000 μm) was 77.9 ± 3.0 pmol/mg protein. For the same compound, the “% control” value (OCT1 [3]; inhibitor 1 μm) was 98.6%, the “Background corrected uptake rate” value (OCT1 [3]; inhibitor 1 μm) was 7.76 pmol/mg/min and the “% control” value (OCT1 [3]; inhibitor 3 μm) was 102%. For the same compound, the “Background corrected uptake rate” value (OCT1 [3]; inhibitor 3 μm) was 8.07 pmol/mg/min, the “% control” value (OCT1 [3]; inhibitor 10 μm) was 90.6% and the “Background corrected uptake rate” value (OCT1 [3]; inhibitor 10 μm) was 7.13 pmol/mg/min. For the same compound, the “% control” value (OCT1 [3]; inhibitor 30 μm) was 99.7%, the “Background corrected uptake rate” value (OCT1 [3]; inhibitor 30 μm) was 7.85 pmol/mg/min and the “% control” value (OCT1 [3]; inhibitor 100 μm) was 105%. The “Background corrected uptake rate” value (OCT1 [3]; inhibitor 100 μm) was 8.26 pmol/mg/min, the “% control” value (OCT1 [3]; inhibitor 300 μm) was 107% and the “Background corrected uptake rate” value (OCT1 [3]; inhibitor 300 μm) was 8.40 pmol/mg/min. The “% control” value (OCT1 [3]; inhibitor 1000 μm) was 63.5%, the “Background corrected uptake rate” value (OCT1 [3]; inhibitor 1000 μm) was 5.00 pmol/mg/min and the “Uptake, Control (Average ± SD)” value (OCT1 [3]; inhibitor 1 μm) was 4.28 ± 1.48 pmol/mg protein. For the same compound, the “Uptake, Control (Average ± SD)” value (OCT1 [3]; inhibitor 3 μm) was 4.44 ± 1.97 pmol/mg protein, the “Uptake, Control (Average ± SD)” value (OCT1 [3]; inhibitor 10 μm) was 4.28 ± 0.92 pmol/mg protein and the “Uptake, Control (Average ± SD)” value (OCT1 [3]; inhibitor 30 μm) was 3.88 ± 0.48 pmol/mg protein. For the same compound, the “Uptake, Control (Average ± SD)” value (OCT1 [3]; inhibitor 100 μm) was 4.12 ± 0.73 pmol/mg protein, the “Uptake, Control (Average ± SD)” value (OCT1 [3]; inhibitor 300 μm) was 3.88 ± 1.11 pmol/mg protein and the “Uptake, Control (Average ± SD)” value (OCT1 [3]; inhibitor 1000 μm) was 2.99 ± 1.46 pmol/mg protein. For the same compound, the IC50 (OCT1 [3]; human, pH 7.4) was over 1 mM, the “% control” value (P-gp [4]; 3 μM) was 74.0% and the “% control” value (P-gp [4]; 10 μM) was 98.2%. The “% control” value (P-gp [4]; 30 μM) was 89.8%, the “% control” value (P-gp [4]; 100 μM) was 79.2% and the “% control” value (P-gp [4]; 300 μM) was 275%. The “% control” value (P-gp [4]; 1000 μM) was 127%.
